Measured values reported in US20110082130A1 (LIGAND PHARMACEUTICALS, INC., priority 2006, published 2011).
pKi: −log10 of the molar value.

These molecules were tested against T1, chimeric human H3 receptor (Homo sapiens, UniProt Q9Y5N1) (assay: Chimeric human H3 receptor GTP binding assay (agonist-stimulated GTP-gamma35S binding, Example 7)). Conditions: Table I; P2 membranes of Sf9 cells, 1 μM histamine as agonist, Ki from IC50 by Cheng-Prusoff.
T1 construct: made in house; host or cells: Sf9 insect cells (baculovirus); P2 membrane preparation
T1 sequence (Q9Y5N1 with tags, fused parts or gaps): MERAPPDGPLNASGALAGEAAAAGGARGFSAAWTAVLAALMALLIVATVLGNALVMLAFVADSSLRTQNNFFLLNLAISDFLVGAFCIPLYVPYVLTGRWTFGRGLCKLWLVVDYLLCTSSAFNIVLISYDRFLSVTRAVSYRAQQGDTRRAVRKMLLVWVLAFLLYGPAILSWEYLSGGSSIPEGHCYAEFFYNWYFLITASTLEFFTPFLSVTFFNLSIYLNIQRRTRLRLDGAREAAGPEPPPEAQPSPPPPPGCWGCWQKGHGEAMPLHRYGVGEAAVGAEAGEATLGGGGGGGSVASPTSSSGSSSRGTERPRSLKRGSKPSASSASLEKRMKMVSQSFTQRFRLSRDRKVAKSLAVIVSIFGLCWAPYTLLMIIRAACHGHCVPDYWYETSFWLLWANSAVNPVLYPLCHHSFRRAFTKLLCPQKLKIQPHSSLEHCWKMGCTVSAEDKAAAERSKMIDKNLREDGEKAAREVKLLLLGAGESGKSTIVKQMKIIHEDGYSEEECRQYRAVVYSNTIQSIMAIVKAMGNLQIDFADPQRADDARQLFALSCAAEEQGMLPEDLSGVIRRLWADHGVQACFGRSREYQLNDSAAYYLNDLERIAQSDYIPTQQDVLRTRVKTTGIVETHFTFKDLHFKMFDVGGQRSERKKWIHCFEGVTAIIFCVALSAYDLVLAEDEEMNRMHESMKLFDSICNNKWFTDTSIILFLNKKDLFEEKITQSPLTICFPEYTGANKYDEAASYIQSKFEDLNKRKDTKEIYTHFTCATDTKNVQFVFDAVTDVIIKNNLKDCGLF
Format: biochemical
From the text: This Example illustrates a representative assay for evaluating agonist-stimulated GTP-gamma^35S binding (“GTP binding”) activity. […] This agonist-stimulated GTP binding activity can also be used to detect partial agonism mediated by antagonist compounds. A compound analyzed in this assay is referred to herein as a “test compound.”
Four independent baculoviral stocks (one directing the expression of the chimeric human H3 receptor and three directing the expression of each of the three subunits of a heterotrimeric G-protein) are used to infect a culture of Sf9 cells as described above. P2 membranes are prepared as described above, and agonist-stimulated GTP binding on the P2 membranes is assessed using histamine (Sigma Chemical Co., St. Louis, Mo.) as agonist in order to ascertain that the receptor/G-protein-alpha-beta-gamma combination(s) yield a functional response as measured by GTP binding. P2 membranes are resuspended by Dounce homogenization (tight pestle) in GTP binding assay buffer (50 mM Tris pH 7.4, 120 mM NaCl, 5 mM MgCl2, 2 mM EGTA, 1 mg/ml BSA, 0.2 mg/ml bacitracin, 0.02 mg/ml aprotinin, 0.01 mg/ml saponin, 10 μM GDP) and added to assay tubes at a concentration of 35 μg protein/reaction tube. After adding increasing doses of histamine at concentrations ranging from 10^−12 M to 10^−5 M, reactions are initiated by the addition of […] GTP-gamma^35S (PERKIN ELMER; Boston, Mass.) with a final assay volume of 0.20 ml. In competition experiments, non-radiolabeled test compounds are added to separate reactions at concentrations ranging from 10^−10 M to 10^−6 M along with 1 μM histamine to yield a final volume of 0.20 ml.
Neutral antagonists are antagonists that are substantially free of inherent agonist activity, and include those test compounds that reduce the histamine-stimulated GTP binding activity towards, but not below, baseline levels. In contrast, in the absence of added histamine, inverse agonists reduce the GTP binding activity of the receptor-containing membranes below baseline.
After a 60-min incubation at room temperature, reactions are terminated by vacuum filtration over WHATMAN GF/C filters (pre-soaked in wash buffer, 0.1% BSA) followed by washing with ice-cold wash buffer (50 mM Tris pH 7.4, 120 mM NaCl). The amount of receptor-bound (and thereby membrane-bound) GTP-gamma^35S is determined by measuring the filter-bound radioactivity, preferably by liquid scintillation spectrometry of the washed filters. Non-specific binding is determined in parallel assays including 10 μM unlabeled GTP-gammaS and typically represents less than 5 percent of total binding. Data is expressed as percent above basal (baseline). The results of GTP binding experiments are analyzed using SIGMAPLOT software (SPSS Inc., Chicago, Ill.). IC50 values are calculated by non-linear regression analysis of dose-response curves using Kaleidograph (Synergy Software, Reading, Pa.).
Alternatively the data is analyzed as follows. First, the average bound radioactivity from negative control wells (no agonist) is subtracted from the bound radioactivity detected for each of the other experimental wells. Second, average bound radioactivity is calculated for the positive control wells (agonist wells). Then, percent inhibition for each compound tested is calculated using the equation:
Calculated IC50 values are converted to K1 values by the Cheng-Prusoff correction (Cheng and Prusoff (1973) Biochem. Pharmacol. 22(23):3099-3108). Accordingly, the following equation: Ki=IC50/(1+[L]/EC50) is used, where [L] is the histamine concentration in the GTP binding assay, and EC50 is the concentration of histamine producing a 50% response, as determined by a dose-response analysis using concentrations of histamine ranging from 10^−10 M to 10^−6M. […]

pKi | Compound
> 6.00 | CC(C)N1CCN(C(=O)CN2CCc3ccccc3C2CC2CCCC2)CC1 (centres unmarked) [Compound 54, 1-(cyclopentylmethyl)-2-[2-(4-isopropylpiperazin-1-yl)-2-oxoethyl]-1,2,3,4-tetrahydroisoquinoline]
> 6.00 | CC(C)N1CCN(C(=O)CN2CCc3ccccc3C2Cc2ccccc2)CC1 (centres unmarked) [Compound 55, 1-benzyl-2-[2-(4-isopropylpiperazin-1-yl)-2-oxoethyl]-1,2,3,4-tetrahydroisoquinoline]
> 6.00 | CCC1c2ccccc2CCN1CC(=O)N1CCN(C(C)C)CC1 (centres unmarked) [Compound 56, 1-ethyl-2-[2-(4-isopropylpiperazin-1-yl)-2-oxoethyl]-1,2,3,4-tetrahydroisoquinoline]
> 6.00 | CC(C)CC1c2ccccc2CCN1CC(=O)N1CCN(C(C)C)CC1 (centres unmarked) [Compound 57, 1-isobutyl-2-[2-(4-isopropylpiperazin-1-yl)-2-oxoethyl]-1,2,3,4-tetrahydroisoquinoline]
> 6.00 | CC(C)N1CCN(C(=O)CN2CCc3ccccc3C2c2ccccc2F)CC1 (centres unmarked) [Compound 58, 1-(2-fluorophenyl)-2-[2-(4-isopropylpiperazin-1-yl)-2-oxoethyl]-1,2,3,4-tetrahydroisoquinoline]
> 6.00 | CC(C)N1CCN(C(=O)CN2CCc3ccccc3C2c2ccccc2Cl)CC1 (centres unmarked) [Compound 59, 1-(2-chlorophenyl)-2-[2-(4-isopropylpiperazin-1-yl)-2-oxoethyl]-1,2,3,4-tetrahydroisoquinoline]
> 6.00 | COc1ccc2c(c1)CCN(CC(=O)N1CCN(C3CCC3)CC1)C2 [Compound 60, 2-[2-(4-cyclobutylpiperazin-1-yl)-2-oxoethyl]-6-methoxy-1,2,3,4-tetrahydroisoquinoline]
> 6.00 | CC(=O)c1ccc2c(c1)CCN(CC(=O)N1CCN(C3CCC3)CC1)C2 [Compound 61, 1-{2-[2-(4-cyclobutylpiperazin-1-yl)-2-oxoethyl]-1,2,3,4-tetrahydroisoquinolin-6-yl}ethanone]
> 6.00 | COc1ccc2c(c1)CCN(CC(=O)N1CCN(C3CCC3)CC1)C2c1ccccc1Cl (centres unmarked) [Compound 62, 1-(2-chlorophenyl)-2-[2-(4-cyclobutylpiperazin-1-yl)-2-oxoethyl]-6-methoxy-1,2,3,4-tetrahydroisoquinoline]
> 6.00 | O=C(CN1CCc2cc(Br)ccc2C1c1ccccc1Cl)N1CCN(C2CCC2)CC1 (centres unmarked) [Compound 63, 6-bromo-1-(2-chlorophenyl)-2-[2-(4-cyclobutylpiperazin-1-yl)-2-oxoethyl]-1,2,3,4-tetrahydroisoquinoline]
> 6.00 | CC(=O)c1ccc2c(c1)CCN(CC(=O)N1CCN(C3CCC3)CC1)C2c1ccccc1Cl (centres unmarked) [Compound 64, 1-{1-(2-chlorophenyl)-2-[2-(4-cyclobutylpiperazin-1-yl)-2-oxoethyl]-1,2,3,4-tetrahydroisoquinolin-6-yl}ethanone]
> 6.00 | O=C(CN1CCc2ncccc2C1)N1CCN(C2CCC2)CC1 [Compound 65, 6-[2-(4-cyclobutylpiperazin-1-yl)-2-oxoethyl]-5,6,7,8-tetrahydro-1,6-naphthyridine]
> 6.00 | CNC(=O)c1ccc2c(c1)CN(CC(=O)N1CCN(C3CCC3)CC1)CC2 [Compound 66, 2-[2-(4-cyclobutylpiperazin-1-yl)-2-oxoethyl]-N-methyl-1,2,3,4-tetrahydroisoquinoline-7-carboxamide]
> 6.00 | CC(=O)c1ccc(-c2ccc3c(c2)CCN(CC(=O)N2CCN(C4CCC4)CC2)C3)cc1 [Compound 67, 1-(4-{2-[2-(4-cyclobutylpiperazin-1-yl)-2-oxoethyl]-1,2,3,4-tetrahydroisoquinolin-6-yl}phenyl)ethanone]
> 6.00 | Cc1noc(C)c1-c1ccc2c(c1)CCN(CC(=O)N1CCN(C3CCC3)CC1)C2 [Compound 68, 2-[2-(4-cyclobutylpiperazin-1-yl)-2-oxoethyl]-6-(3,5-dimethylisoxazol-4-yl)-1,2,3,4-tetrahydroisoquinoline]
> 6.00 | N#Cc1ccc2c(c1)CCN(CC(=O)N1CCN(C3CCC3)CC1)C2 [Compound 69, 2-[2-(4-cyclobutylpiperazin-1-yl)-2-oxoethyl]-1,2,3,4-tetrahydroisoquinoline-6-carbonitrile]
> 6.00 | O=C(CN1CCc2cc(-c3cncnc3)ccc2C1)N1CCN(C2CCC2)CC1 [Compound 70, 2-[2-(4-cyclobutylpiperazin-1-yl)-2-oxoethyl]-6-pyrimidin-5-yl-1,2,3,4-tetrahydrasoquinoline]
> 6.00 | CC(=O)c1ccc(-c2ncc3c(n2)CCN(CC(=O)N2CCN(C4CCC4)CC2)C3)cc1 [Compound 71, 1-(4-{6-[2-(4-cyclobutylpiperazin-1-yl)-2-oxoethyl]-5,6,7,8-tetrahydropyrido[4,3-d]pyrimidin-2-yl}phenyl)ethanone]
> 6.00 | CNC(=O)c1ccc(-c2ccc3c(c2)CCN(CC(=O)N2CCN(C4CCC4)CC2)C3)cc1 [Compound 72, 4-{2-[2-(4-cyclobutylpiperazin-1-yl)-2-oxoethyl]-1,2,3,4-tetrahydroisoquinolin-6-yl}-N-methylbenzamide]
> 6.00 | CCC(=O)c1ccc2c(c1)CCN(CC(=O)N1CCN(C3CCC3)CC1)C2 [Compound 73, 1-{2-[2-(4-cyclobutylpiperazin-1-yl)-2-oxoethyl]-1,2,3,4-tetrahydroisoquinolin-6-yl}propan-1-one]
> 6.00 | CS(=O)(=O)c1cccc(-c2ccc3c(c2)CCN(CC(=O)N2CCN(C4CCC4)CC2)C3)c1 [Compound 74, 2-[2-(4-cyclobutylpiperazin-1-yl)-2-oxoethyl]-6-[3-(methylsulfonyl)phenyl]-1,2,3,4-tetrahydroisoquinoline]
> 6.00 | O=C(CN1CCc2cc(-c3ccncc3)ccc2C1)N1CCN(C2CCC2)CC1 [Compound 75, 2-[2-(4-cyclobutylpiperazin-1-yl)-2-oxoethyl]-6-pyridin-4-yl-1,2,3,4-tetrahydroisoquinoline]
> 6.00 | COc1ccc(-c2ncc3c(n2)CCN(CC(=O)N2CCN(C4CCC4)CC2)C3)cc1 [Compound 76, 6-[2-(4-cyclobutylpiperazin-1-yl)-2-oxoethyl]-2-(4-methoxyphenyl)-5,6,7,8-tetrahydropyrido[4,3-d]pyrimidine]
> 6.00 | COc1ccc2c(c1)CCN(CC(=O)N1CCN(C3CCC3)CC1)CC2 [Compound 77, 3-[2-(4-cyclobutylpiperazin-1-yl)-2-oxoethyl]-7-methoxy-2,3,4,5-tetrahydro-1H-3-benzazepine]
> 6.00 | COc1ncnc2c1CCN(CC(=O)N1CCN(C3CCC3)CC1)CC2 [Compound 78, 7-[2-(4-cyclobutylpiperazin-1-yl)-2-oxoethyl]-4-methoxy-6,7,8,9-tetrahydro-5H-tetrahydro-5H-pyrimido[4,5-d]azepine]
> 6.00 | CC(=O)c1ccc(-c2ncnc3c2CCN(CC(=O)N2CCN(C4CCC4)CC2)CC3)cc1 [Compound 79, 1-(4-{7-[2-(4-cyclobutylpiperazin-1-yl)-2-oxoethyl]-6,7,8,9-tetrahydro-5H-pyrimido[4,5-d]azepin-4-yl}phenyl)ethanone]
> 6.00 | O=C(CN1CCc2cncnc2CC1)N1CCN(C2CCC2)CC1 [Compound 80, 7-[2-(4-cyclobutylpiperazin-1-yl)-2-oxoethyl]-6,7,8,9-tetrahydro-5H-pyrimido[4,5-d]azepine]
> 6.00 | O=C(CN1CCn2c(Br)cnc2C1)N1CCN(C2CCC2)CC1 [Compound 81, 3-bromo-7-[2-(4-cyclobutylpiperazin-1-yl)-2-oxoethyl]-5,6,7,8-tetrahydroimidazo[1,2-a]pyrazine]
> 6.00 | CC(=O)c1ccc(-c2cnc3n2CCN(CC(=O)N2CCN(C4CCC4)CC2)C3)cc1 [Compound 82, 1-(4-{7-[2-(4-cyclobutylpiperazin-1-yl)-2-oxoethyl]-5,6,7,8-tetrahydroimidazo[1,2-a]pyrazin-3-yl}phenyl)ethanone]
